According to ChEMBL document CHEMBL3227983, “N-Acetimidoyl- and N-formimidoylthienamycin derivatives: antipseudomonal beta-lactam antibiotics” (J Med Chem, 1979):

Columns and labels:
[1] = Stability of the compound in crystalline form in deionized water assessed as time at which 90% of initial UV-absorbance remains at 10 mg/ml at 23 degC; assay type: physicochemical; settings: buffer
[2] = Stability of the compound in amorphous form in deionized water assessed as time at which 90% of initial UV-absorbance remains at 60 mg/ml at 23 degC; assay type: physicochemical; settings: buffer
[3] = Stability of the compound in amorphous form in 1 M PO4 assessed as time at which 90% of initial UV-absorbance remains at 60 mg/ml at pH 7 at 23 degC; assay type: physicochemical; settings: buffer
[4] = Stability of the compound in amorphous form assessed as compound remaining after 6 months at 60 mg/ml at 23 degC in presence of 0.1 equiv of NaHCO3; assay type: physicochemical; settings: read-out: Stability
[5] = Stability of the compound in crystalline form assessed as compound remaining after 6 months at 10 mg/ml at 23 degC in presence of 0.1 equiv of NaHCO3; assay type: physicochemical; settings: read-out: Stability
[6] = system: Staphylococcus aureus; assay: Antibacterial activity against penicillin-sensitive Staphylococcus aureus MB2985 at 25 ug/disk; assay type: functional; settings: read-out: DIZ
[7] = system: Staphylococcus aureus; assay: Antibacterial activity against penicillin-resistant Staphylococcus aureus MB2314 at 25 ug/disk; assay type: functional; settings: read-out: DIZ
[8] = system: Escherichia coli; assay: Antibacterial activity against penicillin-sensitive Escherichia coli MB2482 at 25 ug/disk; assay type: functional; settings: read-out: DIZ
[9] = system: Escherichia coli; assay: Antibacterial activity against penicillin-resistant Escherichia coli MB2964 at 25 ug/disk; assay type: functional; settings: read-out: DIZ
[10] = system: Enterobacter cloacae; assay: Antibacterial activity against penicillin-sensitive Enterobacter cloacae MB2647 at 25 ug/disk; assay type: functional; settings: read-out: DIZ
[11] = system: Enterobacter cloacae; assay: Antibacterial activity against penicillin-resistant Enterobacter cloacae MB2646 at 25 ug/disk; assay type: functional; settings: read-out: DIZ
[12] = system: Pseudomonas aeruginosa; assay: Antibacterial activity against penicillin-sensitive Pseudomonas aeruginosa MB2835 at 25 ug/disk; assay type: functional; settings: read-out: DIZ
[13] = system: Pseudomonas aeruginosa; assay: Antibacterial activity against penicillin-resistant Pseudomonas aeruginosa MB3350 at 25 ug/disk; assay type: functional; settings: read-out: DIZ
[14] = Stability of the compound in amorphous form assessed as compound remaining after 5 months at 60 mg/ml at 23 degC in presence of 0.1 equiv of NaHCO3; assay type: physicochemical; settings: read-out: Stability
[15] = Drug degradation in crystalline form at 10 mg/ml; assay type: physicochemical; settings: read-out: Drug degradation
[16] = Stability of the compound in amorphous form assessed as compound remaining after 1 month at 60 mg/ml at 23 degC in presence of 0.1 equiv of NaHCO3; assay type: physicochemical; settings: read-out: Stability

What does the source list for C[C@@H](O)[C@H]1C(=O)N2C(C(=O)O)=C(SCCN=CN)C[C@H]12 [IMIPENEM ANHYDROUS]?
Time [1]: 17 h; Time [2]: 2.5 h; Time [3]: 0.5 h; remaining at 4383 h, 60 mg/ml [4]: 80%; remaining at 4383 h, 10 mg/ml [5]: 100%; zone of inhibition at 25 µg/disc [6]: 40 mm; zone of inhibition at 25 µg/disc [7]: 40.5 mm; zone of inhibition at 25 µg/disc [8]: 28.5 mm; zone of inhibition at 25 µg/disc [9]: 29.5 mm; zone of inhibition at 25 µg/disc [10]: 27 mm; zone of inhibition at 25 µg/disc [11]: 27.5 mm; zone of inhibition at 25 µg/disc [12]: 29 mm; zone of inhibition at 25 µg/disc [13]: 29 mm

What does the source list for CC(=N)NCCSC1=C(C(=O)O)N2C(=O)[C@H]([C@@H](C)O)[C@H]2C1?
Time [2]: 5 h; Time [3]: 0.5 h; remaining at 3652.5 h, 60 mg/ml [14]: 100%; zone of inhibition at 25 µg/disc [6]: 38.5 mm; zone of inhibition at 25 µg/disc [7]: 40 mm; zone of inhibition at 25 µg/disc [8]: 28 mm; zone of inhibition at 25 µg/disc [9]: 29.5 mm; zone of inhibition at 25 µg/disc [10]: 27 mm; zone of inhibition at 25 µg/disc [11]: 27 mm; zone of inhibition at 25 µg/disc [12]: 28 mm; zone of inhibition at 25 µg/disc [13]: 28 mm; degraded at 10 mg/ml [15]: < 1%

For C[C@@H](O)[C@H]1C(=O)N2C(C(=O)O)=C(SCCN)C[C@H]12 [THIENAMYCIN], which Time [2] is on record?
The Time was 0.5 h.

And the Time [3]?
Its Time is 0.5 h.

What about the remaining at 730.5 h, 60 mg/ml [16] of the same compound?
Its remaining at 730.5 h, 60 mg/ml is 80%.

And the zone of inhibition at 25 µg/disc [6]?
The zone of inhibition at 25 µg/disc was 40 mm.

And the zone of inhibition at 25 µg/disc [7]?
Its zone of inhibition at 25 µg/disc is 41 mm.

And the zone of inhibition at 25 µg/disc [8]?
The zone of inhibition at 25 µg/disc was 28.5 mm.

What about the zone of inhibition at 25 µg/disc [9] of the same compound?
Its zone of inhibition at 25 µg/disc is 29 mm.

What about the zone of inhibition at 25 µg/disc [10] of the same compound?
Its zone of inhibition at 25 µg/disc is 25.5 mm.

What about the zone of inhibition at 25 µg/disc [11] of the same compound?
The zone of inhibition at 25 µg/disc was 27 mm.

What about the zone of inhibition at 25 µg/disc [12] of the same compound?
The zone of inhibition at 25 µg/disc was 26 mm.

And the zone of inhibition at 25 µg/disc [13]?
Its zone of inhibition at 25 µg/disc is 26 mm.
